Values quoted from earlier work as cited in patent US7737133B2, “Formulations and methods of treating inflammatory bowel disease” (AGI Therapeutics Ltd., priority 2003, dated 2010).

Assays:
[1] = reportedly; Ginsberg et al.
[2] = compared with 5-ASA

systemic absorption of 5-ASA or its acetylated form (after cleavage of olsalazine in the colon) | absorbed intact from the gut (olsalazine, conventional powder capsule) [%] | Compound | nephrotoxicity [1] | aqueous stability [2]
– | – | Nc1ccc(C(=O)O)c(O)c1 [Example 4-ASA, 4-aminosalicylic acid] | absence of nephrotoxicity | higher aqueous stability
approximately 20% | 2.4 | O=C(O)c1cc(N=Nc2ccc(O)c(C(=O)O)c2)ccc1O [olsalazine, 5,5′-azo-bis salicylic acid] | – | –
